# Assay results as given in patent US7341867B2, “Human preprotachykinin gene promoter” (University of Medicine & Dentistry of New Jersey, priority 1999, dated 2008).
# Assays:
# Assay type in all cases: cell-based, human
# β-PPT-I mRNA = assay: Quantitative RT-PCR in stimulated bone marrow stroma
# Description: (§1) In a second embodiment of the present invention, bone marrow stroma was stimulated in serum-free α-MEM supplemented with Insulin-transferrin-selenium-A (Life Technologies). Quantitative RT-PCR with total RNA, extracted from bone marrow stroma and construction of standard DNA was performed as described in Singh, D., supra. The end sequences of the standard DNA contained gene-specific sequences that are complementary for the reaction primers. The primers in the standard DNA flank neutral DNA. Total RNA (2 μg) was reverse transcribed and 200 ng cDNA used in PCR with specific oligonucleotide primers for PPT-I, NK-1 or NK-2. Standard DNA, log10 fold dilutions, ranged between 10^−2 to 10^−6 attomole/L. Each unknown sample was assayed with a particular concentration of standard DNA in the same reaction tube. PCR products (10 μl) were separated by electrophoresis on 1.5% agarose containing ethidium bromide and the densities of the DNA bands quantitated with a Fluorimager (Molecular Dynamics, Sunnyvale, Calif.) and then analyzed with ImageQuant software. A standard curve was established for each unknown sample: band densities of unknown/standard DNA vs. Log10 standard DNA concentration was used to determine the concentration of RNA molecules in the unknown samples. The concentration of the unknown sample was selected at the concentration in which the ratio of the unknown and standard were equivalent.
# (§2) Transfected bone marrow stroma was stimulated with optimal concentrations of IL-1α (2.5 ng/ml), SCF (8 ng/ml) or 1 nM substance P, SP (Sigma, St Louis, Mo.) and/or 10 nM NK-1-specific antagonist (CP-99,994) in α-MEM with 2% FCS. In other embodiments, bone marrow stroma was stimulated with 5 μg/ml forskolin, FK (Sigma) for 2 and 5 h. SCF was purchased from R&D Systems (Minneapolis, Minn.) and IL-1α was obtained from Hoffman LaRoche, Nutley, N.J. Pfizer, Inc. (Groton, Conn.) provided CP-99,994. Substance P and CP-99,994 were dissolved and stored as described in Ramewshwar et al (1996), supra. Optimal parameters were determined with dose-response and time-course studies.
# Confluent bone marrow stroma was stimulated with 25 ng/ml rhIL-1α or 10 ng/ml SCF for 24 h. Poly A RNA was isolated from total RNA by selection (2×) on oligo-dT cellulose (Life Technologies). The cellulose column was washed once with 10 mM Tris, pH 7.0; 0.5 M NaCl; […] and once with 10 mM Tris, pH 7.0; 0.2 M NaCl; […]. Poly A RNA was eluted with 10 mM Tris (pH 7.0) and […]. RNA was precipitated by standard techniques and then resuspended in DEPC-treated water. The purity was verified by the absence of rRNA.
# NK-1 mRNA = assay: as above
# Description: as §1, §2
# NK-2 mRNA = assay: as above; conditions: BM stroma; 8 ng/ml SCF or 2.5 ng/ml IL-1a; 16 h; serum-free α-MEM
# Description: as §1, §2
# [1] = test system: PPT-I promoter (Upstream/N0); assay: Luciferase reporter gene assay, pGL3-Upstream/N0 in transfected bone marrow stroma
# Description: as §2
# pGL3-basic with inserts of different fragments from PPT-I-p1.2 was co-transfected with pβ-gal-Control (0.5 μg each) in 80% confluent bone marrow stroma using SuperFect (Qiagen, Valencia, Calif.). After 48 h cells were scraped in 30 μl 250 mM Tris (pH 8.0) and then lysed by freezing and thawing in a dry ice/ethanol bath. Cell-free lysates (24 μl) were obtained by centrifugation at 15,000 g for 5 min at 4° C. and then diluted with 5× cell culture lysis buffer (Promega). Luciferase and β-gal activities were quantitated with 10 μl of lysates using Luciferase assay system (Promega) and Luminescent β-galactosidase detection kit II (Clontech) respectively. In the experimental model, the ratios of Luciferase/β-gal in cells transfected with vector alone ranged from 0.18 to 0.19 and was normalized to 1. Because cytokines induce the promoter upstream of β-gal, in cytokine-stimulated cells, luciferase activity was presented/mg of total protein the levels normalized with stroma transfected with vector alone. Total protein was determined using standard techniquees well known in the art.
# Mutations were performed with a mutagenesis kit (Stratagene, La Jolla, Calif.). The desired mutant sequences (Table 1) were synthesized within 40 nt in the forward and reverse directions and then used in PCR with pGL3 containing wild type Upstream/N0. After PCR amplification, mutation was verified by identification of Apa L1 within CRE-like mutant and the loss of Xho 1 in CRE mutant.
# SP-IR = assay: ELISA of immunoreactive-SP (SP-IR) in stroma cell extracts
# Description: Competitive ELISA quantitated SP-IR in supernatants from breast cancer cell cultures that were 80% confluent. Cell-free supernatants were stored in siliconized tubes at −70° C. until ready to be assayed. Streptavidin, […] in distilled water, was added to Immulon 96-well plates (Dynatech Laboratories Inc., Chantilly, Va.). Streptavidin was allowed to dry at 37° C. After this, wells were blocked with 5% nonfat dry milk for 2 hr at room temperature and then washed with PBS containing 0.1% Tween-20 (PBST). Chiron Mimotopes (Emeryville, Calif.) synthesized biotinylated-SP, with spacer arm. Stock solution was diluted in 0.1% (v/v) acetic acid at 5 mg/ml, aliquoted in siliconized tubes and stored at −70° C. Working solution was diluted at 750 ng/ml with PBS containing 0.1% (w/v) BSA and 0.1% (w/v) sodium azide. Biotinylated-SP ([…]) was added to wells and plates incubated for 1 hr at room temperature. Plates were washed (×4) with PBST. Competition by the […] and soluble SP for anti-SP forms the basis for the next step. Equal volume (50 μl) of optimum rabbit anti-SP (1/15,000), and unknown or standard solution were added to wells. Plates were incubated at room temperature for 1 hr. Each unknown was assayed in triplicate as undiluted and three serial dilutions. Bound anti-SP was detected by incubating for 1 hr with optimum (150 ng/ml) AP-goat antirabbit IgG. Color was developed with Sigma 104 phosphatase substrate as described (Rameshwar, P. et al. (1996), Blood 88, 98-106). A standard curve was developed with O.D. (405 nm) versus 12 serial dilutions of standard SP that ranged from 100 to 0.08 ng/ml. […]
# In the next set of experiments, we investigated the possibility for an indirect mechanism in the activation of PPT-I promoter. […] Since SCF induces endogenous PPT-I (Table 6), we used ELISA (Singh, D. et al, supra) to quantitate the level of its major translation product, immunoreactive-SP (SP-IR), in stroma cell extracts. […] To address this, we incubated the SCF-stimulated cells with 10 nM of an NK-1-specific antagonist (CP-99,994) and then quantitated luciferase activity. […]
# [2] = BM stroma, 8 ng/ml SCF or 2.5 ng/ml IL-1a, 16 h, serum-free α-MEM
# [3] = stroma stimulated with SCF, five experiments
substance,measurement,setting,value
"SCF: stem cell factor, cytokine purchased from R&D Systems",β-PPT-I (molecules/μg total RNA),"β-PPT-I mRNA; BM stroma, 1 nM SP, 8 ng/ml SCF and/or 10 nM CP-99,994, 16 h",1324 ± 76 molecules/μg total RNA
same,β-PPT-I mRNA,β-PPT-I mRNA; [2],1336 ± 134 Molecules/μg total RNA
same,molecules of β-PPT-I/μg poly A,"β-PPT-I mRNA; poly A RNA from stroma stimulated with 25 ng/ml rhIL-1α or 10 ng/ml SCF for 24 h, n=6","134,340±545 molecules of β-PPT-I/μg poly A"
same,NK-1 mRNA,NK-1 mRNA; [2],5253 ± 170 Molecules/μg total RNA
same,NK-1 induced,NK-1 mRNA; optimal SCF for 36 h,5052±50 molecules/μg total RNA
same,NK-2 mRNA,NK-2 mRNA,273 ± 19 Molecules/μg total RNA
same,increase in luciferase activities compared to unstimulated cells,"[1]; pGL3-Upstream/N0 wild type, optimal SCF or IL-1a, 10 h",4 fold
same,induction of luciferase in cells transfected with the double mutants,[1]; pGL3-Upstream/N0 with mutant CRE and CRE-like,no significant induction
same,SP-IR in stromal extracts,"SP-IR; SCF-stimulated, after 36 h, n=5, ±SD",115 ± 8 pg/mL
same,SP-IR at 4 h post-transfection,SP-IR; [3],122 ± 14 pg/mL
same,SP-IR at time 0 post-transfection,SP-IR; [3],110 ± 18 pg/mL
